# Laboratory results taken from PMC10610214 (Pharmaceuticals, 2023).
# “And” between values parts separate entries of the source, which are not always exact repeats. Equal values may be shown once.
# What was measured:
# [1] = molecular target: Aβ1-42 (Homo sapiens, UniProt P05067); assay: Self-induced Aβ1-42 aggregation, thioflavin T fluorescence; type: biochemical; set-up: final concentrations of 20 μM of Aβ1-42 and 100 μM of test compound; purchased Beyotime Institute of Biotechnology; conditions: 100 μM inhibitor; ThT; 48 h; read-out: Inhibition of Self-Induced Aβ Aggregation (%)
# Experimental: The inhibitory effect of compounds on Aβ42 was determined by Thioflavin T (ThT) fluorescence assay. In short, the dilution of Aβ42 solution (Beyotime Biotechnology, Hang Zhou, China) and test compounds was carried out with phosphate buffer (50 mM, pH 7.4) to obtain final concentrations of 20 μM of Aβ1-42 and 100 μM of test compound, such as curcumin (20 μM). The mixture was incubated in 96-well plates at room temperature for 48 h in the dark. When the incubation was complete, the samples were diluted to 200 µL (final volume) with glycine–NaOH buffer (50 mM, pH 8.0) containing 5 μM ThT.
# [2] = tested on: SY5Y cells; assay: Cytotoxicity in SY5Y cells (MTT); type: cell-based
# [3] = tested on: H2O2-induced PC12 cells; assay: Neuroprotection against H2O2-induced PC12 cell injury (MTT); type: cell-based; conditions: H2O2 250 μM, mean ± SEM
# [4] = tested on: PC12 cells; assay: Cytotoxicity in PC12 cells (MTT); type: cell-based
# [5] = tested on: BV2 cells; assay: Cytotoxicity in BV2 cells (MTT); type: cell-based
# Experimental: The cytotoxicity and neuroprotective effects of the compounds on PC12 cells were evaluated by MTT assay. PC12 cells were seeded into a 96-well plate at a density of 5.0 × 10^3 cells per well. After the cells were incubated overnight, the old medium was discarded. The cells were incubated for another 24 h with fresh medium containing compounds at a concentration of 30 or 50 μM. A total of 20 μL of MTT solution (5 mg/mL, Sigma-Aldrich, Shanghai, China) was then added per well, and the cells were incubated for an additional 4 h. Afterwards, the supernatant was removed and 150 μL of DMSO was added to solubilize formazan crystals. The 96-well plate was placed on the shaker for 10–15 min, and then the absorbance at 492 nm was measured by a microplate reader.
# The cytotoxicity of compounds on BV2 cells were evaluated by MTT assay and similar to those described in Section 2.5. The NO concentrations in medium were determined using Griess Reagent assay (Beyotime) in accordance with a previously reported method. Nitrite is reduced to nitrogen oxide using Griess Reagent I. Nitrogen oxide then reacts with Griess Reagent II forming a stable product that can be detected by its absorbance at […]. The two-step assay is simple, fast, and can detect nitrite levels as low as 1 nmol/well. BV2 cells were seeded into a 48-well plate at a density of 6.0 × 10^4 cells per well. […]
# [6] = molecular target: T1, BuChE (Equus caballus, UniProt P81908); assay: Kinetic study of BuChE inhibition (Lineweaver–Burk); type: biochemical
# T1 construct: BuChE (from equine serum); purchased Sigma Chemical Company (St. Louis, MO, USA); host or cells: equine serum
# Experimental: The specific steps are similar to those described in Section 4.3 for the enzyme inhibition assay. In brief, 100 μL of different concentrations of 4h (0, 0.075, 0.15, and 0.3 μM)/4h (0, 3, 6, and 12 μM) and 100 μL of different concentrations of AChE/BuChE (1, 0.5, 0.25, 0.125, and 0.0625 U/mL) were added into 48-well plates and then co-incubated at 37 °C for 30 min. After the end of incubation, 100 μL of ATCI/BTCI (0.35 mM), 100 μL of PB solution, and 100 μL DTNB (0.35 mM) were added, and then changes in absorbance were measured at different times at 412 nm by multifunctional microplate reader, and the catalytic reaction rate of AChE/BuChE was determined. All concentrations are final. With the enzyme reaction rate V as the ordinate and AChE/BuChE concentration as the abscissa, the curve was drawn to determine the reversibility of the compound to AChE/BuChE.
# In order to determination of inhibition types and the constant of AChE/BuChE, the concentration of AChE/BuChE (0.5 U/mL) in the reaction system was fixed. Five different substrate concentrations and four different concentrations of test compound 4h were used to measure the absorbance changes at different times at 412 nm. The reciprocal of the enzymatic reaction rate (1/V) was taken as the ordinate, and the reciprocal of the substrate ATCI/BTCI concentration (1/S) was taken as the abscissa.
# […]. […]
# [7] = LD50 determination in mice (Bliss method); type: in vivo, C57BL mice; conditions: male, C57BL, mouse, in vivo, po, intragastric administration 7 days, Bliss method, read-out: LD50 (95% confidence limit)
# Experimental: Male C57BL mice (18–23 g; 8 weeks old) were purchased from the Experimental Center of Anhui University of Traditional Chinese Medicine. Mice were reared in a temperature and humidity controlled environment with free access to food and water, with self-adaptive rearing for 4 days.
# Thirty mice were randomly divided into five groups, and the death of each group was counted after 7 days of intragastric administration (100, 80, 64, 51.2, 40.96 mg/kg). The Bliss method was used to calculate the LD50 and 95% confidence limit.
# T1 sequence (P81908 whole entry): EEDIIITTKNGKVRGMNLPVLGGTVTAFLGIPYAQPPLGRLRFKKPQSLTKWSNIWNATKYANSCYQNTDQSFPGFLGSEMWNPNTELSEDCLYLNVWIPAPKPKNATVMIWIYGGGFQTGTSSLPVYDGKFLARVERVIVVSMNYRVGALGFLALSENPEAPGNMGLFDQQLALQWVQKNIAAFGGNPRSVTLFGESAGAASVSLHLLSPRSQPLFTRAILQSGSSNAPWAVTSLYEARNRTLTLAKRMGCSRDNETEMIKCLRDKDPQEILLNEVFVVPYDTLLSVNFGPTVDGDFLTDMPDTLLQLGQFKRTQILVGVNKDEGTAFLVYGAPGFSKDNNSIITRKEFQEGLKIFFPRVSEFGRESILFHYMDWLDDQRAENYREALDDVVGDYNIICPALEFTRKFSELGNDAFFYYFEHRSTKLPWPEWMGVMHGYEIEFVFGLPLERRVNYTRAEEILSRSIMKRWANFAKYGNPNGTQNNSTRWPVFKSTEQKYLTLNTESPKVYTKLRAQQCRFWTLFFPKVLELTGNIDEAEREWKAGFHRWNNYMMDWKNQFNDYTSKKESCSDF
# Sequence of Aβ1-42 (P05067 672-713 limits assumed): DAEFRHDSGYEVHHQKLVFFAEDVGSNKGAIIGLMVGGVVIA
smiles,measurement,setting,value
O=C1c2cc(NS(=O)(=O)c3ccccc3F)ccc2-n2c1nc1ccccc1c2=O [4h],inhibition at 100 µM,[1],63.2 ± 2.33%
same,Cell Viability (% of Control),[2]; 30 μM,97.84 ± 1.24 % of control
same,Cell Viability (% of Control),[2]; 50 μM,91.33 ± 1.48 % of control
same,H2O2-Induced PC12 Cell Viability (% of Control),[3]; compound 10 μM,61.66 ± 1.3 % of Control
same,H2O2-Induced PC12 Cell Viability (% of Control),[3]; compound 30 μM,71.31 ± 1.9 % of Control
same,Cell Viability (% of Control),"[4]; compound 30 μM, 30 µM",99.62 ± 0.94 % of Control and 99.6 ± 0.9 % of Control
same,Cell Viability (% of Control),"[4]; compound 50 μM, 50 µM",99.21 ± 1.57 % of Control and 99.2 ± 1.5 % of Control
same,Cell Viability (% of Control),[5]; 30 μM,101.23 ± 1.82 % of control
same,Cell Viability (% of Control),[5]; 50 μM,97.44 ± 1.36 % of control
same,BuChE inhibition type,[6]; Lineweaver–Burk double-reciprocal plot,mixed-type inhibition
same,Ki,[6]; Lineweaver–Burk secondary plot,5.33 µM
same,LD50 at 7 days,[7],84.8 mg/kg
